Consider 42 molecules from US6790848B2, “4-piperazinylindole derivatives with 5-HT6 receptor affinity” (Syntex (U.S.A.) LLC, priority 2001, dated 2004).

For data set [1], the target named is T1, recombinant human 5-HT6 receptor (Homo sapiens, UniProt P50406).
T1 construct: expressed in transfected cells; cell membranes used
Description: Radioligand binding studies: competition for [3H]LSD binding in membranes of HEK293 cells. Conditions: [3H]LSD (5 nM), HEK293 cell membranes, 60 min at 37° C., pH 7.4. As for the experimental part: The pharmacology of the compounds of this invention was determined by art recognized procedures.
The binding activity of compounds of this invention in vitro was determined as follows.
Duplicate determinations of ligand affinity are made by competing for binding of [3H]LSD in cell membranes derived from HEK293 cells stably expressing recombinant human 5-HT6 receptor.
All determinations are made in assay buffer containing 50 mM Tris-HCl, 10 mM MgSO4, 0.5 mM EDTA, 1 mM ascorbic acid, pH 7.4 at 37° C., in a 250 microliter reaction volume. Assay tubes containing [3H] LSD (5 nM), competing ligand, and membrane are incubated in a shaking water bath for 60 min. at 37° C., filtered onto Packard GF-B plates (pre-soaked with 0.3% PEI) using a Packard 96 well cell harvester and washed 3 times in ice cold 50 mM Tris-HCl. Bound [3H] LSD is determined as radioactive counts per minute using Packard TopCount.
Displacement of [3H]LSD from the binding sites was quantified by fitting concentration-binding data to a 4-parameter logistic equation: [formula]
where Hill is the Hill slope, [ligand] is the concentration of competing radioligand and IC50 is the concentration of radioligand producing half-maximal specific binding of radioligand. The specific binding window is the difference between the Bmax and the basal parameters.

Where a name gives a salt, the structure may show the parent alone.

T1 sequence (P50406 whole entry): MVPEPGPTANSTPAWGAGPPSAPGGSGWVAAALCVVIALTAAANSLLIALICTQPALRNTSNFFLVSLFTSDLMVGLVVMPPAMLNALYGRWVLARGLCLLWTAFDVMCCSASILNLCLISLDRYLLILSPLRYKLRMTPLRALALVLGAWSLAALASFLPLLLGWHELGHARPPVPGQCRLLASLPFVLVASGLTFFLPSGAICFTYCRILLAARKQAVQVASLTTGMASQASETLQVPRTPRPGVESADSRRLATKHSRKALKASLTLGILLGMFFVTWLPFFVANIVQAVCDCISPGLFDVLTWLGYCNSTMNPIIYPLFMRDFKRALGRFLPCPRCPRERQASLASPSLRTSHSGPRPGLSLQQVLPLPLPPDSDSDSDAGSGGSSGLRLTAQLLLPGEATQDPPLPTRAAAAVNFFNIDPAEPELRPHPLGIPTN

As to `O=S(=O)(c1cccc(F)c1)n1ccc2c(N3CCNCC3)cccc21` [1-(3-fluoro-benzenesulfonyl)-4-piperazin-1-yl-1H-indole], the Ki – broadly, the equilibrium dissociation constant of an inhibitor or competing ligand from its target – in data set [1] was 0.155 nM. Consider `O=S(=O)(c1cccc(Br)c1)n1ccc2c(N3CCNCC3)cccc21` (as salt: hydrochloride), for which the melting point (in general, the temperature, or range, at which the solid turns liquid) was 158 to 159 °C. On the same count and under the same terms, the value for `N#Cc1cccc(S(=O)(=O)n2ccc3c(N4CCNCC4)cccc32)c1` (as salt: trifluoroacetate) [3-(4-piperazin-1-yl-indole-1-sulfonyl)-benzonitrile] was 238 °C (dec.); that for `O=S(=O)(c1ccc(F)cc1)n1ccc2c(N3CCNCC3)cccc21` (as salt: hydrochloride) [1-(4-fluoro-benzenesulfonyl)-4-piperazin-1-yl-1H-indole] was 203 to 204 °C.

As to `COc1cccc(S(=O)(=O)n2ccc3c(N4CCNCC4)cccc32)c1` [1-(3-methoxy-benzenesulfonyl)-4-piperazin-1-yl-1H-indole], the Ki in data set [1] was 0.372 nM.

Regarding `CS(=O)(=O)c1ccc(F)c(S(=O)(=O)n2ccc3c(N4CCNCC4)cccc32)c1` [1-(2-fluoro-5-methanesulfonyl-benzenesulfonyl)-4-piperazin-1-yl-1H-indole], in data set [1], the Ki was 13.8 nM.

Consider `COc1ccc(OC)c(S(=O)(=O)n2ccc3c(N4CCNCC4)cccc32)c1` (as salt: trifluoroacetate) [1-(2,5-dimethoxy-benzenesulfonyl)-4-piperazin-1-yl-1H-indole], for which the melting point is 245 to 246 °C (dec.). `O=S(=O)(c1cc(Cl)cc(Cl)c1)n1ccc2c(N3CCNCC3)cccc21` (as salt: hydrochloride) [1-(3,5-Dichloro-benzenesulfonyl)-4-piperazin-1-yl-1H-indole] registered a melting point of 156 to 157 °C.

Consider `CS(=O)(=O)c1ccccc1S(=O)(=O)n1ccc2c(N3CCNCC3)cccc21` (as salt: trifluoroacetate) [1-(2-methanesulfonyl-benzenesulfonyl)-4-piperazin-1-yl-1H-indole], for which the melting point stood at 171 °C. As for `O=S(=O)(c1ccccc1)n1cc(Br)c2c(N3CCNCC3)cccc21` [1-benzenesulfonyl-3-bromo-4-piperazin-1-yl-1H-indole], in data set [1], the Ki is 0.123 nM. `Cn1cnc(S(=O)(=O)n2ccc3c(N4CCNCC4)cccc32)c1` (as salt: trifluoroacetate) had a melting point of 230 to 231 °C. Consider `CCS(=O)(=O)c1cccc(S(=O)(=O)n2ccc3c(N4CCNCC4)cccc32)c1` (as salt: hydrochloride) [1-(3-ethanesulfonyl-benzenesulfonyl)-4-piperazin-1-yl-1H-indole], for which the melting point fell in the range of 166 to 167 °C. As to `CCCS(=O)(=O)c1cccc(S(=O)(=O)n2ccc3c(N4CCNCC4)cccc32)c1` [4-piperazin-1-yl-1-[3-(propane-1-sulfonyl)-benzenesulfonyl]-1H-indole], the Ki in data set [1] was 1.55 nM. Same read-out and setting: the value for `O=S(=O)(c1cc(Cl)cc(Cl)c1)n1ccc2c(N3CCNCC3)cccc21` [1-(3,5-Dichloro-benzenesulfonyl)-4-piperazin-1-yl-1H-indole] was 0.372 nM; that for `O=S(=O)(c1cc(Cl)ccc1Cl)n1ccc2c(N3CCNCC3)cccc21` [1-(2,5-dichloro-benzenesulfonyl)-4-piperazin-1-yl-1H-indole] was 0.151 nM.

As for `O=S(=O)(c1cc(Cl)ccc1Cl)n1ccc2c(N3CCNCC3)cccc21` (as salt: trifluoroacetate) [1-(2,5-dichloro-benzenesulfonyl)-4-piperazin-1-yl-1H-indole], the melting point was 237 to 238 °C (dec.). Same read-out and setting: the value for `CN1CCN(c2cccc3c2ccn3S(=O)(=O)c2ccc(F)cc2)CC1` (as salt: hydrochloride) [1-(4-fluoro-benzenesulfonyl)-4-(4-methyl-piperazin-1-yl)-1H-indole] was 151 to 152 °C; that for `O=S(=O)(c1cccc(C(F)(F)F)c1)n1ccc2c(N3CCNCC3)cccc21` (as salt: hydrochloride) [4-piperazin-1-yl-1-(3-trifluoromethyl-benzenesulfonyl)-1H-indole] was 256 to 257 °C; that for `O=S(=O)(c1ccc(Cl)cc1)n1ccc2c(N3CCNCC3)cccc21` (as salt: trifluoroacetate) [1-(4-chloro-benzenesulfonyl)-4-piperazin-1-yl-1H-indole] was 193 to 194 °C. For `O=S(=O)(c1ccccc1)n1cc(Br)c2c(N3CCNCC3)cccc21` (as salt: hydrochloride) [1-benzenesulfonyl-3-bromo-4-piperazin-1-yl-1H-indole], the melting point lay in the range of 304 to 305 °C. With `CC(C)CS(=O)(=O)c1cccc(S(=O)(=O)n2ccc3c(N4CCNCC4)cccc32)c1` [1-[3-(2-methyl-propane-1-sulfonyl)-benzenesulfonyl]-4-piperazin-1-yl-1H-indole], the Ki in data set [1] is 1.91 nM. As to `CN1CCN(c2cccc3c2ccn3S(=O)(=O)c2ccc(F)cc2)CC1` [1-(4-fluoro-benzenesulfonyl)-4-(4-methyl-piperazin-1-yl)-1H-indole], in data set [1], the Ki is 0.832 nM. The same measure, in the same setting: the value for `CS(=O)(=O)c1cc(Br)cc(S(=O)(=O)n2ccc3c(N4CCNCC4)cccc32)c1` [1-(3-bromo-5-methanesulfonyl-benzenesulfonyl)-4-piperazin-1-yl-1H-indole] was 7.59 nM; that for `O=S(=O)(c1ccc(Cl)cc1)n1ccc2c(N3CCNCC3)cccc21` [1-(4-chloro-benzenesulfonyl)-4-piperazin-1-yl-1H-indole] was 0.537 nM. Same read-out and setting: for `O=S(=O)(c1cccs1)n1ccc2c(N3CCNCC3)cccc21` [4-piperazin-1-yl-1-(thiophene-2-sulfonyl)-1H-indole] the value was 0.447 nM; for `O=S(=O)(c1ccccc1F)n1ccc2c(N3CCNCC3)cccc21` [1-(2-fluoro-benzenesulfonyl)-4-piperazin-1-yl-1H-indole], 0.0525 nM. Regarding `CC(C)CS(=O)(=O)c1cccc(S(=O)(=O)n2ccc3c(N4CCNCC4)cccc32)c1` (as salt: trifluoroacetate) [1-[3-(2-methyl-propane-1-sulfonyl)-benzenesulfonyl]-4-piperazin-1-yl-1H-indole], the melting point lay in the range of 220 to 222 °C. On to `CS(=O)(=O)c1cccc(S(=O)(=O)n2ccc3c(N4CCNCC4)cccc32)c1` [1-(3-methanesulfonyl-benzenesulfonyl)-4-piperazin-1-yl-1Hindole], for which the Ki in data set [1] was 2.69 nM. Same read-out and setting: for `O=S(=O)(NC1CC1)c1cccc(S(=O)(=O)n2ccc3c(N4CCNCC4)cccc32)c1` [N-cyclopropyl-3-(4-piperazin-1-yl-indole-1-sulfonyl)-benzenesulfonamide] the value was 1.26 nM. On to `CN(C)S(=O)(=O)c1cccc(S(=O)(=O)n2ccc3c(N4CCNCC4)cccc32)c1` [NN-dimethyl-3-(4-piperazin-1-yl-indole-1-sulfonyl)-benzenesulfonamide], for which, in data set [1], the pKi – broadly, −log10 of the Ki, conventionally taken in molar units – turned out to be 8.69. Regarding `O=S(=O)(c1c(F)cccc1F)n1ccc2c(N3CCNCC3)cccc21` (as salt: trifluoroacetate), the melting point lay within 223 to 224 °C.

For `O=S(=O)(c1cccc(C(F)(F)F)c1)n1ccc2c(N3CCNCC3)cccc21` [4-piperazin-1-yl-1-(3-trifluoromethyl-benzenesulfonyl)-1H-indole], the Ki in data set [1] is 0.2 nM. The same measure, in the same setting: for `CS(=O)(=O)c1ccccc1S(=O)(=O)n1ccc2c(N3CCNCC3)cccc21` [1-(2-methanesulfonyl-benzenesulfonyl)-4-piperazin-1-yl-1H-indole] the value was 16.6 nM. With `O=S(=O)(c1cccc(Cl)c1)n1ccc2c(N3CCNCC3)cccc21` [1-(3-chloro-benzenesulfonyl)-4-piperazin-1-yl-1H-indole], the Ki in data set [1] is 0.11 nM. Still for that read-out and setting: for `N#Cc1cccc(S(=O)(=O)n2ccc3c(N4CCNCC4)cccc32)c1` [3-(4-piperazin-1-yl-indole-1-sulfonyl)-benzonitrile] the value was 1.12 nM; for `O=S(=O)(c1cccc2ccccc12)n1ccc2c(N3CCNCC3)cccc21` [1-(Naphthalene-1-sulfonyl)-4-piperazin-1-yl-1H-indole], 0.158 nM. Same read-out and setting: the value for `CC(C)(C)c1ccc(S(=O)(=O)n2ccc3c(N4CCNCC4)cccc32)cc1` [1-(4-ter-butyl-benzenesulfonyl)-4-piperazin-1-yl-1H-indole] was 3.55 nM; that for `COc1ccc(S(=O)(=O)n2ccc3c(N4CCNCC4)cccc32)cc1` [1-(4-Methoxy-benzenesulfonyl)-4-piperazin-1-yl-1H-indole] was 0.447 nM.

For `COc1ccc(OC)c(S(=O)(=O)n2ccc3c(N4CCNCC4)cccc32)c1` [1-(2,5-dimethoxy-benzenesulfonyl)-4-piperazin-1-yl-1H-indole], in data set [1], the Ki was 0.933 nM. Same read-out and setting: for `CCS(=O)(=O)c1cccc(S(=O)(=O)n2ccc3c(N4CCNCC4)cccc32)c1` [1-(3-ethanesulfonyl-benzenesulfonyl)-4-piperazin-1-yl-1H-indole] the value was 1.55 nM; for `O=S(=O)(c1cnc(Cl)c(Br)c1)n1ccc2c(N3CCNCC3)cccc21` [1-(5-bromo-6-chloro-pyridine-3-sulfonyl)-4-piperazin-1-yl-1H-indole], 5.62 nM; for `CS(=O)(=O)c1ccc(S(=O)(=O)n2ccc3c(N4CCNCC4)cccc32)cc1` [1-(4-methanesulfonyl-benzenesulfonyl)-4-piperazin-1-yl-1H-indole], 42.7 nM.
